In patent US11865103B2, “Methods of treating disorders associated with glycosylation defective proteins” (CASE WESTERN RESERVE UNIVERSITY, priority 2016, dated 2024):

Columns and labels:
[1] = system: hCLRN1^N48K-YFP; clrn1^KO/KO larvae; assay: Survival rate of hCLRN1^N48K-YFP; clrn1^KO/KO zebrafish larvae under ART treatment, 6.5 to 27 dpf; type: in vivo; conditions: for Survival rate and swimming behavior beyond 25 dpf: untreated 5%
Description: (§1) The startle response and swimming behavior of the clrn1^+/+ larvae, clrn1^KO/KO larvae, hCLRN1-YFP; clrn1^KO/KO larvae and hCLRN1^N48K-YFP; clrn1^KO/KO larvae were recorded at 6.5dpf, 10.5dpf, 16.5dpf and 27dpf as described earlier (Table-1). The extracellular microphonics potentials were recorded at 6dpf to confirm the hair cell function in these humanized zebrafish models for hCLRN1 (hCLRN1-YFP; clrn1^KO/KO larvae larvae) and USH3-CLRN1^N48Kmutant (hCLRN1^N48K-YFP; clrn1^KO/KO larvae) as described earlier (FIG. 5).
(§2) To verify the degree of overall rescue in swimming behavior (hair cell function) and prolongation of life span by ART treatment in the hCLRN1^N48K-YFP; clrn1^KO/KO zebrafish larvae, survival rate, swimming behavior and startle response were observed longitudinally from 6.5 to 27 dpf (Table 1). For this rescue experiment, we followed two regimens of ART treatment. Regimen I, 35 larvae from hCLRN1^N48K-YFP; clrn1^KO/KO genotype were treated with 0.4 uM ART from 3 to 7 dpf (5 days of treatment during inner ear development and hair cell maturation). Regimen II, 20 larvae from hCLRN1^N48K-YFP; clrn1^KO/KO genotype were treated with 0.4 uM ART from 3 to 12 dpf (10 days of treatment overlapping development and post-development of inner ear anatomy and hair cell maturation). At 6.5 dpf, the swimming behavior and startle response of hCLRN1^N48K-YFP; clrn1^KO/KO larvae from ART treatment regimen I and II, were indistinguishable from that of clrn1^+/+ and hCLRN1-YFP; clrn1^KO/KO larvae. About 75% (Regimen I+II: 41 larvae) of ART treated hCLRN1^N48K-YFP; clrn1^KO/KO larvae had clrn1^+/+ equivalent startle response. In regimen I and II, the survival rate and swimming behavior of hCLRN1^N48K-YFP; clrn1^KO/KO larvae beyond 25 dpf shown significant improvement from 5% in untreated hCLRN1^N48K-YFP; clrn1^KO/KO larvae to 40% (n=14) and 45% (n=[…]), respectively. […] Overall, result confirms that ART is not only able to correct the trafficking defect of hCLRN1^N48K protein, but also able to help in normal hair cell functioning of hair cells from hCLRN1^N48K-YFP; clrn1^KO/KO zebrafish and delay onset progressive loss of hair cell function.

hCLRN1^N48K-YFP = assay: Hair bundle localization of hCLRN1^N48K-YFP (YFP intensity) in neuromast hair cells of live larvae treated with SERCA inhibitors; type: in vivo, zebrafish; parameters: key: “—” = The YFP intensity in the bundle is similar to untreated control.; “+” = The YFP intensity in the bundle is higher compared to untreated control; conditions: ART 0.25 μM
[2] = system: hCLRN1^N48K-YFP; clrn1^KO/KO larvae; assay: Startle response and swimming/balance behavior of ART treated hCLRN1^N48K-YFP; clrn1^KO/KO larvae; type: in vivo, zebrafish
Description: as §1
At 6.5 dpf, clrn1^+/+ larvae often tend to swim towards the middle or closer to surface of the water (E3 medium) in the Petri dish, and escape swiftly from the field of view when startled (by tapping the Petri dish with a metal probe). At 6.5 dpf, hCLRN1^N48K-YFP; clrn1^KO/KO larvae (n=40) were hard to distinguish from clrn1^+/+ larvae in a Petri dish when viewed from the top. […] To monitor hair cell function in the hCLRN1^N48K-YFP; clrn1^KO/KO zebrafish, larvae from several clutch were observed longitudinally from 6.5 to 27 dpf for survival, swimming behavior and startle response (Table 1). […] However, 5% of the hCLRN1^N48K-YFP; clrn1^KO/KO zebrafish do survive long enough to be able to breed like its clrn1^+/+ counterpart. […] In this model, hair cells expressing hCLRN1^N48K retained hair bundle structure and function for a longer duration than clrn1^KO/KO hair cells, consistent with previous report ‘USH3-CLRN1Y176X individuals develop severe hearing loss earlier in life compared with CLRN1^N48K individuals’. This new model for inner ear disorder associated with hCLRN1^N48K mutation will be useful to identify therapeutic agents to prevent progressive loss of hair cell function in USH3-CLRN1^N48K mutant individuals.
as §2

[3] = Regimen I: 0.4 μM ART from 3 to 7 dpf, 6.5 dpf
[4] = Regimen I: 0.4 μM ART from 3 to 7 dpf, 10.5 dpf
[5] = Regimen I: 0.4 μM ART from 3 to 7 dpf, 15 dpf
[6] = Regimen I: 0.4 μM ART from 3 to 7 dpf, 16.5 dpf
[7] = Regimen I: 0.4 μM ART from 3 to 7 dpf, 27 dpf
[8] = Regimen II: 0.4 μM ART from 3 to 12 dpf, 6.5 dpf
[9] = Regimen II: 0.4 μM ART from 3 to 12 dpf, 10.5 dpf
[10] = Regimen II: 0.4 μM ART from 3 to 12 dpf, 15 dpf
[11] = Regimen II: 0.4 μM ART from 3 to 12 dpf, 16.5 dpf
[12] = Regimen II: 0.4 μM ART from 3 to 12 dpf, 27 dpf
[13] = Regimen I: 0.4 μM ART from 3 to 7 dpf

C[C@@H]1CC[C@H]2[C@@H](C)C(=O)O[C@@H]3O[C@@]4(C)CC[C@@H]1[C@]32OO4 [ART, Artemisinin]
Survival rate [1, 3]: (100%) | Survival rate, number of surviving larvae [1, 3]: 35 | Survival rate [1, 4]: (85.71%) | Survival rate, number of surviving larvae [1, 4]: 30 | Survival rate [1, 5]: (68.57%) | Survival rate, number of surviving larvae [1, 5]: 24 | Survival rate [1, 6]: (54.29%) | Survival rate, number of surviving larvae [1, 6]: 19 | Survival rate [1, 7]: (40%) | Survival rate, number of surviving larvae [1, 7]: 14 | Survival rate and swimming behavior beyond 25 dpf ([1]; Regimen I: 0.4 uM ART from 3 to 7 dpf): 40% | Survival rate [1, 8]: (100%) | Survival rate, number of surviving larvae [1, 8]: 20 | Survival rate [1, 9]: (90%) | Survival rate, number of surviving larvae [1, 9]: 18 | Survival rate [1, 10]: (65%) | Survival rate, number of surviving larvae [1, 10]: 13 | Survival rate [1, 11]: (65%) | Survival rate, number of surviving larvae [1, 11]: 13 | Survival rate [1, 12]: (45%) | Survival rate, number of surviving larvae [1, 12]: 9 | Survival rate and swimming behavior beyond 25 dpf ([1]; Regimen II: 0.4 uM ART from 3 to 12 dpf): 45% | YFP intensity in the bundle compared to untreated control (hCLRN1^N48K-YFP; exposure 2 h): — | YFP intensity in the bundle compared to untreated control (hCLRN1^N48K-YFP; exposure 4 h): — | YFP intensity in the bundle compared to untreated control (hCLRN1^N48K-YFP; exposure 8 h): — | Swimming behavior and startle response compared with clrn1^+/+ and hCLRN1-YFP; clrn1^KO/KO larvae ([2]; ART treatment regimen I and II, 6.5 dpf): indistinguishable | Larvae with clrn1^+/+ equivalent startle response ([2]; Regimen I+II, 0.4 uM ART, 6.5 dpf): About 75% | % of abnormal swimming-balance (6.5 dpf) [2, 13]: 25.71% | % of normal swimming-balance (>25 dpf) [2, 13]: 40% | % showing startle response at 6.5 dpf [2, 13]: 100% | % of normal swimming-balance (>25 dpf) ([2]; Regimen II: 0.4 μM ART from 3 to 12 dpf): 45%
